The target of test [1] is T1, Aminopeptidase N (Plasmodium falciparum FcB1/Columbia, UniProt O96935).
T1 sequence (O96935 whole entry): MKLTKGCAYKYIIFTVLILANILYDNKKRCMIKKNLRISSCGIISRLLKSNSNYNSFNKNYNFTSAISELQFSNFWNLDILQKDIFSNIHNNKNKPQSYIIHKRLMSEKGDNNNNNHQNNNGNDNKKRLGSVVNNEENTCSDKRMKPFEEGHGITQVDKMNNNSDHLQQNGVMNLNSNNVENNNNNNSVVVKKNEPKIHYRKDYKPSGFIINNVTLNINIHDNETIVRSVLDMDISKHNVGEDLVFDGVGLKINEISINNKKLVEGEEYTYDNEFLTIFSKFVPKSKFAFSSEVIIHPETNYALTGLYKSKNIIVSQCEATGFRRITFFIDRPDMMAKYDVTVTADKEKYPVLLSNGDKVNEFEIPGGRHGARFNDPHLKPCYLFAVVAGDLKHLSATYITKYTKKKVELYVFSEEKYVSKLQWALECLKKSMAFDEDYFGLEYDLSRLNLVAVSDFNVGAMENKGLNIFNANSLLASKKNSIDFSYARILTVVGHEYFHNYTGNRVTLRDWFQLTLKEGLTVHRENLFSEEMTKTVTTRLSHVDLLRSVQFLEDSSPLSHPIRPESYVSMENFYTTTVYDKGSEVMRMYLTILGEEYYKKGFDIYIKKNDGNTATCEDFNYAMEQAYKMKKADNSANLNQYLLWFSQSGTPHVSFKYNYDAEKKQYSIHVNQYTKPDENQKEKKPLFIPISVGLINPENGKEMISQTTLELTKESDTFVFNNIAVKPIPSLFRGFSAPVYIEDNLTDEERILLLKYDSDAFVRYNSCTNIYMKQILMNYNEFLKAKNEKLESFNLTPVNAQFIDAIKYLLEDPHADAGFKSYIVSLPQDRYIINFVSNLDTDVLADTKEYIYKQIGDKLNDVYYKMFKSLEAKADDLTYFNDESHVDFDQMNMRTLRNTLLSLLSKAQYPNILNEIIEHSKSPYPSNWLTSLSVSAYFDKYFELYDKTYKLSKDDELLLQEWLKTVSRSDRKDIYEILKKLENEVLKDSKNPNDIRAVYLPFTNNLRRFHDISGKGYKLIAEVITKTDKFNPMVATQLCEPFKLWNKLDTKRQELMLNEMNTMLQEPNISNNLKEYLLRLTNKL
As to the kind of experiment: P. falciparum M1AAP inhibitors, biochemical, fluorogenic H-Leu-NHMec substrate, 1536-well (AID 1445). Details: species or system Plasmodium falciparum 3D7, 3D7.

Test [2] is described as follows: cells. Format: functional.
The nature of test [3]: HepG2 cell cytotoxicity, dose response, cytotoxicity control for non-replicating M. tuberculosis project (AID 489018). Format: functional. Conditions: Mycobacterium tuberculosis.
The nature of test [4]: cytotoxicity toward NIH3T3 fibroblasts, dose response, counter-screen, cell-based, ATP luminescence, mouse fibroblasts (AID 2010).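 Also: cells exposed to compound for about 90 hours before reading.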 Format: functional. Background: A counterscreen serves to expose hits that act by an unwanted route or on another target.
Test [5] in a line: inhibitors of intracellular T. cruzi replication, confirmation, NIH3T3 host cells, beta-gal luminescence (AID 2044).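 Also: intracellular parasites grown in NIH/3T3 mouse fibroblasts as host cells; luminescent beta-galactosidase reporter signal from transgenic T. cruzi replicating inside host cells; inhibitors lower the luminescence signal.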 Format: functional, cell-based.
Test [6] in a line: Luminescent dose response cell-based high throughput screening assay for inhibitors of the Janus kinase 2 mutant JAK2V617F. [Related pubchem assays: 1446 (Primary screen.), 1521 (Confirmation assay.), 1486 (Counter screen.)]. Format: functional.
The nature of test [7]: Vero E6 cell cytotoxicity, dose response, cytotoxicity control for non-replicating M. tuberculosis project, secondary assay (AID 492998). The class given is functional, VeroE6. Conditions: Vero C1008.
The nature of test [8]: THP-1 cell cytotoxicity, dose response, cytotoxicity control for non-replicating M. tuberculosis project (AID 489025). The class given is functional.
In test [9] the target is Paired box protein Pax-8 (Homo sapiens, UniProt Q06710). Kind of test: inhibitors of PAX8-driven TPO luciferase reporter, dose response, RMG-I cells, cherry-pick (AID 687027).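 Also: luciferase reporter driven by Pax8 target thyroperoxidase promoter measured by SteadyGlo luminescence.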 Format: functional, cell-based.
Test [10] deals with T2, G-protein coupled receptor 55 (Homo sapiens, UniProt Q9Y2T6). Kind of test: GPR55 antagonists blocking LPI-driven arrestin recruitment, primary screen, imaging, U2OS, beta-arrestin-GFP, LPI agonist (AID 2013).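 Also: antagonist potency measured as reduced agonist-driven arrestin aggregation.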 Format: functional. A general note: Recruitment of arrestin is a read-out of receptor activation apart from second messengers.
The target of test [11] is T2, G-protein coupled receptor 55. As to the kind of experiment: GPR55 agonists via beta-arrestin recruitment, primary screen, imaging, U2OS cells, beta-arrestin-GFP redistribution (AID 1961). The class given is functional.
The target of test [12] is T3, Alkaline phosphatase, tissue-nonspecific isozyme (Homo sapiens, UniProt P05186).
T3 sequence (P05186 whole entry): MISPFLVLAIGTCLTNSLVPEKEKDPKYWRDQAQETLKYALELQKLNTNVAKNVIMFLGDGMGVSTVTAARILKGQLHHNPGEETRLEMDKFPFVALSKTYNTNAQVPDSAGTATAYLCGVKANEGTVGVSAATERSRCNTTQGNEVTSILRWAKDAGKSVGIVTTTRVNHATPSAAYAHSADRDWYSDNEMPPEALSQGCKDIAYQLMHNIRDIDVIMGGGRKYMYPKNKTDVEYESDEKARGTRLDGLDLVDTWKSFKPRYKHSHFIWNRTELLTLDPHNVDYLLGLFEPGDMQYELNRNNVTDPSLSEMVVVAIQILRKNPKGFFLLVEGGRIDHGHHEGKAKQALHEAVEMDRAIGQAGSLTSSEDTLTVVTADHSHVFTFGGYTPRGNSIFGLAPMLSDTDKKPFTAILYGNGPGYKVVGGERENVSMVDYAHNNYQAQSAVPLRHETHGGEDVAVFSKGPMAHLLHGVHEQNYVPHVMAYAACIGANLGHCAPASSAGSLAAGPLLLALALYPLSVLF
Kind of test: human TNAP enzyme inhibitors, SAR follow-up, biochemical, luminescent, dose response (AID 1056).

Test [13] concerns the target T4, Mannose-6-phosphate isomerase (Homo sapiens, UniProt P34949).
T4 sequence (P34949 whole entry): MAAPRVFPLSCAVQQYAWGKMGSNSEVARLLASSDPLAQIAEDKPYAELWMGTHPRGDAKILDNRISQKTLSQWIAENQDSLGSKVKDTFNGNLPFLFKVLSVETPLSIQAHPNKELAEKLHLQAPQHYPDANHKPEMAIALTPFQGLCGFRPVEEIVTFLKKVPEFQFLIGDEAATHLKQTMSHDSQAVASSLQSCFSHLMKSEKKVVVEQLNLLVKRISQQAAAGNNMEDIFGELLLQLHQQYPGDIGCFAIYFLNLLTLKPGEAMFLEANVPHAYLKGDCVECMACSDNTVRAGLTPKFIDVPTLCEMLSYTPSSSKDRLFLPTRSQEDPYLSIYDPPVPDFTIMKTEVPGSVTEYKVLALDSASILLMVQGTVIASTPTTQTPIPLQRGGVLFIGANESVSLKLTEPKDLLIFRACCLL
As to the kind of experiment: PMI enzyme inhibitors, confirmation, biochemical, fluorescence intensity (AID 1535).

Test [14] concerns the target T5, Phosphomannomutase 2 (Homo sapiens, UniProt O15305).
T5 sequence (O15305 whole entry): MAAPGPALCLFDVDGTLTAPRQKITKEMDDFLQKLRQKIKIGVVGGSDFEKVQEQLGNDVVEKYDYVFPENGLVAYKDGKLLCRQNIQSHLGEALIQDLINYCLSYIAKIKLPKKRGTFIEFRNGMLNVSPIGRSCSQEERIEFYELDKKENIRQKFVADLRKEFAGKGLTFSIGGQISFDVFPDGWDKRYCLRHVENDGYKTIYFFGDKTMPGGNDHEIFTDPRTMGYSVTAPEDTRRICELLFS
Kind of test: Counter screen SAR assay for PMM2 inhibitors via a fluorescence intensity assay. [Related pubchem assays (depositor defined):AID1545, AID1574].

Test [15] concerns the target Phosphoethanolamine/phosphocholine phosphatase (Homo sapiens, UniProt Q8TCT1). As to the kind of experiment: SAR assay for compounds that inhibit PHOSPHO1. [Related pubchem assays (depositor defined):AID1545, AID1565, AID1574].
Test [16] is described as follows: HepG2 cell cytotoxicity, dose response, cytotoxicity control, ATP luminescence, cherry-pick, activator set 2 (AID 1053143). The class given is functional, cell-based.
In test [17] the test system is INS1. Kind of test: beta cell apoptosis inhibitors, cytokine rescue, dose response, luminescence, retest (AID 449756).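 Also: cell death triggered by IL-1 beta plus TNF-alpha plus IFN-gamma mixture; protective hits raise ATP signal compared with cytokine alone wells.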 Format: functional, cell-based. Conditions: Rattus norvegicus, INS1.
Test [18] has as its target FAD-linked sulfhydryl oxidase ALR (Homo sapiens, UniProt P55789). Kind of test: inhibitors of human ALR sulfhydryl oxidase, dose response, biochemical, H2O2 detection, luminescence, cherry-pick (AID 493248).
In test [19] the target is T6, Ubiquitin-conjugating enzyme E2 N (Homo sapiens, UniProt P61088).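 Also: Dose-response confirmation in a TR-FRET assay detecting UBC13-driven polyubiquitin chain formation, inhibition measured.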
T6 sequence (P61088 whole entry): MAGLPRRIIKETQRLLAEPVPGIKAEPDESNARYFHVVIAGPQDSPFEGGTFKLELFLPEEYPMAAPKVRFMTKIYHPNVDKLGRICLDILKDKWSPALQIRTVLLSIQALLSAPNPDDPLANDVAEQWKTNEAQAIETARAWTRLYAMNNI
The class given is functional.

Test [20] has as its target Disintegrin and metalloproteinase domain-containing protein 17 (Homo sapiens, UniProt P78536). As to the kind of experiment: exosite inhibitors of ADAM17, dose response, biochemical (AID 743260).
Test [21] is described as follows: ADAM10 protease inhibitors, dose response, selectivity assay for ADAM17 exosite inhibitor project, biochemical, FRET peptide substrate, recombinant human ADAM10 (AID 743259).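 Also: ADAM10 enzyme cleaving a FRET peptide substrate.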
The target of test [22] is Trypsin (Sus scrofa, UniProt P00761). Kind of test: porcine trypsin inhibitors, dose response, selectivity assay for Rce1 protease inhibitor project, biochemical, quenched peptide fluorescence, cherry-pick (AID 488789).
Test [23] has as its target Peroxisome proliferator-activated receptor gamma/Nuclear receptor coactivator 1 (Homo sapiens, UniProt P37231). The class given is functional.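 Also: agonist potency as compounds enhance coactivator SRC-1 recruitment to PPARgamma.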
In test [24] the target is Peroxisome proliferator-activated receptor gamma/Nuclear receptor coactivator 2 (Homo sapiens, UniProt P37231). Format: functional.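 Also: agonist potency for raising coactivator recruitment to the receptor.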
For test [25], the target named is Peroxisome proliferator-activated receptor gamma/Nuclear receptor coactivator 3 (Homo sapiens, UniProt P37231). The class given is functional.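 Also: agonist potency for raising coactivator recruitment to the receptor.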

Activity calls are given as the source filed them. Bounds are passed on as bounds.

T2 sequence (Q9Y2T6 whole entry): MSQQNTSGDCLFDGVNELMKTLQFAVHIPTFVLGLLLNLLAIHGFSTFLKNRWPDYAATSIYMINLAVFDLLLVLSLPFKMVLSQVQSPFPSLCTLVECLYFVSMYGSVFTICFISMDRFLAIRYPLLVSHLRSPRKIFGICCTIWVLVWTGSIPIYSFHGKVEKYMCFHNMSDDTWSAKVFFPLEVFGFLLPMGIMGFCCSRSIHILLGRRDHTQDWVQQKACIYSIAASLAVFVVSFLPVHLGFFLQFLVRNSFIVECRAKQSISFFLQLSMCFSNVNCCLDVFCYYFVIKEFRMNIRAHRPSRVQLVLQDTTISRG
Chain of Disintegrin and metalloproteinase domain-containing protein 17 (P78536 whole entry, the tested form may be a part): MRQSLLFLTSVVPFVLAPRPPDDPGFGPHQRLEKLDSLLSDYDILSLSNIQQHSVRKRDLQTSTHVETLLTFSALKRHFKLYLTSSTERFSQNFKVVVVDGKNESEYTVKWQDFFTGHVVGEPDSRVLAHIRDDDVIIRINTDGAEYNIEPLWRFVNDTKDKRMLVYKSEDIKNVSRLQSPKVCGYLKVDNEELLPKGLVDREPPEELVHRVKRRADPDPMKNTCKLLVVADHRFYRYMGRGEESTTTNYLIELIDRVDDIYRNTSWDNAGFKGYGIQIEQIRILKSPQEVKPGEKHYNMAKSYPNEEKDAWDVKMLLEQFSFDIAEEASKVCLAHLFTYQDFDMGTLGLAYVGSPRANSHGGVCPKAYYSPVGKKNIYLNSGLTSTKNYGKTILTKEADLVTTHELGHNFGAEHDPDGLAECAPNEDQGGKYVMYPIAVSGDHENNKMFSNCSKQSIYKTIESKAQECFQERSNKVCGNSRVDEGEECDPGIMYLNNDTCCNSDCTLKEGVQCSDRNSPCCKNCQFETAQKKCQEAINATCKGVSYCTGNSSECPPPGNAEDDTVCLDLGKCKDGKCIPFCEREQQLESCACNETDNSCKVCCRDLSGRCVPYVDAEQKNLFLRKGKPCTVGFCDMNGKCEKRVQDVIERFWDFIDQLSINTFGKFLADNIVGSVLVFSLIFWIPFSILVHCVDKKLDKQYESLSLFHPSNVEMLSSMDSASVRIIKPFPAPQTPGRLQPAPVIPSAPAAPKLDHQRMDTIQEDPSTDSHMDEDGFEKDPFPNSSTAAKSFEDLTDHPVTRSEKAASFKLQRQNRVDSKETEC
Chain of FAD-linked sulfhydryl oxidase ALR (P55789 whole entry): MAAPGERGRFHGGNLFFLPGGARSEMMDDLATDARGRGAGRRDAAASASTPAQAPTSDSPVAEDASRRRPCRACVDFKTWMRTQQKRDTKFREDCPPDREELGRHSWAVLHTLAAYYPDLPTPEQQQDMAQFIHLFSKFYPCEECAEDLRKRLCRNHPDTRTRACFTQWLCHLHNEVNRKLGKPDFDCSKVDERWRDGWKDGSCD
Chain of Paired box protein Pax-8 (Q06710 whole entry): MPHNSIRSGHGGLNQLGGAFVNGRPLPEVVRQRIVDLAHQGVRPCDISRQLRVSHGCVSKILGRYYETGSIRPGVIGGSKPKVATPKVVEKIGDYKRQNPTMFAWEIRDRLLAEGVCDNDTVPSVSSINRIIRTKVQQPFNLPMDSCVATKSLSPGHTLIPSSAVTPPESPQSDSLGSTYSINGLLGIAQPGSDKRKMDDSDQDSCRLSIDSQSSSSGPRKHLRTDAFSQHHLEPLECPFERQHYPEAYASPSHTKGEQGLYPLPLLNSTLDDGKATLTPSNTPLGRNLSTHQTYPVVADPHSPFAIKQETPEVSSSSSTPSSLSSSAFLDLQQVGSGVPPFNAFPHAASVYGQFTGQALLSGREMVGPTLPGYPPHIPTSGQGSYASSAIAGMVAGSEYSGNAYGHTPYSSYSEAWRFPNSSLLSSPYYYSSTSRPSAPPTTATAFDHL
Chain of Peroxisome proliferator-activated receptor gamma/Nuclear receptor coactivator 2 (P37231 whole entry): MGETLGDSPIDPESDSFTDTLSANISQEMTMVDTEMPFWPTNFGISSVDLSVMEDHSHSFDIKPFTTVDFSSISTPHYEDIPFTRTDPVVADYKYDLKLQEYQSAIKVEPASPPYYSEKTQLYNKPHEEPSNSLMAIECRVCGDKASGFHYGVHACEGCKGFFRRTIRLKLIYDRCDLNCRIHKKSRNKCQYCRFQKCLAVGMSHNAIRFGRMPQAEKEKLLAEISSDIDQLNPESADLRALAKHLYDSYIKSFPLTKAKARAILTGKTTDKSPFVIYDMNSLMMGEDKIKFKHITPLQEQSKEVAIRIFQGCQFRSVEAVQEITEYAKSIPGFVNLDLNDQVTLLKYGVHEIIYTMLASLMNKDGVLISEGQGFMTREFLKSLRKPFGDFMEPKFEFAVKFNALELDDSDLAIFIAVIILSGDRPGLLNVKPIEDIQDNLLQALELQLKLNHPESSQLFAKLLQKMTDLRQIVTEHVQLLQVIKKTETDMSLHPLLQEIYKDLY
Chain of Peroxisome proliferator-activated receptor gamma/Nuclear receptor coactivator 2 (Q15596 whole entry, further chain): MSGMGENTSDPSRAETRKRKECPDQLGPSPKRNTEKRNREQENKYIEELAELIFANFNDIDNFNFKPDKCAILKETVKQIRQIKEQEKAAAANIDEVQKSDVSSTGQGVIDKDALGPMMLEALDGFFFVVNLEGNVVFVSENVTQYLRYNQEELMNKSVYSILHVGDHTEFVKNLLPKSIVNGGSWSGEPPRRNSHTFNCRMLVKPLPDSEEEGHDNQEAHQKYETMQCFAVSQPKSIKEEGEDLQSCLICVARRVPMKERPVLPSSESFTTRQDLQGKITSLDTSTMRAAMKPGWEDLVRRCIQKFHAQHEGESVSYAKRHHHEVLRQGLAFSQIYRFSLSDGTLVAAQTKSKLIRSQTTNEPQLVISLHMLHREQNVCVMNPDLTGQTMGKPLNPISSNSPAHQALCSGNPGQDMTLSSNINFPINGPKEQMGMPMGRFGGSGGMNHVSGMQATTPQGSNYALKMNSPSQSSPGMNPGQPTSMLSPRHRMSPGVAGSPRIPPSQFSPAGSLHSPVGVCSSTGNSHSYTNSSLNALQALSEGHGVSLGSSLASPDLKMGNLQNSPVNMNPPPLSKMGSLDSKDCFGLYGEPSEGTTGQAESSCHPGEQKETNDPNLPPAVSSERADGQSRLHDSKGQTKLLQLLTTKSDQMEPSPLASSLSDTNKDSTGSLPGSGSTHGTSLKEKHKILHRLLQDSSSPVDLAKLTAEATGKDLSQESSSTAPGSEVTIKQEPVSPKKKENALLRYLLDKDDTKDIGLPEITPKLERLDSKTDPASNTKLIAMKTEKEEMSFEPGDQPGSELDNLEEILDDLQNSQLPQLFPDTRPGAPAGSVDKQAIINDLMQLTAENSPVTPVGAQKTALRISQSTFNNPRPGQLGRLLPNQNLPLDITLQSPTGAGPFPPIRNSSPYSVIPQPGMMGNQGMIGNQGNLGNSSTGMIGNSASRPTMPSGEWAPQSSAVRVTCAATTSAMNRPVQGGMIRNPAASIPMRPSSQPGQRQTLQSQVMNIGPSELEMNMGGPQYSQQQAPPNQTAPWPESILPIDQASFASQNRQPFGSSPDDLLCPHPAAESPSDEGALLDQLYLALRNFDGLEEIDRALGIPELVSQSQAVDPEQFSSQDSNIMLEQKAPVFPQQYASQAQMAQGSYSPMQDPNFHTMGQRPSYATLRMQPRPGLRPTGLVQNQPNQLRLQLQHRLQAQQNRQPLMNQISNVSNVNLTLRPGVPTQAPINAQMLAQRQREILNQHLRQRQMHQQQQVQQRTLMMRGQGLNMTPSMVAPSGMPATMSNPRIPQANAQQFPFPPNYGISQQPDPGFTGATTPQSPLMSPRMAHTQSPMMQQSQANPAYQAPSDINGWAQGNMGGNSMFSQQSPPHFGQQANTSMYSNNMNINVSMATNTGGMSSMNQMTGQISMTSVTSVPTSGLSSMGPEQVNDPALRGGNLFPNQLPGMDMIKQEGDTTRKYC
Chain of Phosphoethanolamine/phosphocholine phosphatase (Q8TCT1 whole entry): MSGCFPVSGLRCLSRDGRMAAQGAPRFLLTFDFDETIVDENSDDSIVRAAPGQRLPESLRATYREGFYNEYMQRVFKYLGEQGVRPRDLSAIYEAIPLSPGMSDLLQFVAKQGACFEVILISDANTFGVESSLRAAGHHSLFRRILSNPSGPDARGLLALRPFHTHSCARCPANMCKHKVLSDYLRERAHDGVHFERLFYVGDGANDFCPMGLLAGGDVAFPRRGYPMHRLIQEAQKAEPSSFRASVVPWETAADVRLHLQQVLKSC
Chain of Trypsin (P00761 whole entry): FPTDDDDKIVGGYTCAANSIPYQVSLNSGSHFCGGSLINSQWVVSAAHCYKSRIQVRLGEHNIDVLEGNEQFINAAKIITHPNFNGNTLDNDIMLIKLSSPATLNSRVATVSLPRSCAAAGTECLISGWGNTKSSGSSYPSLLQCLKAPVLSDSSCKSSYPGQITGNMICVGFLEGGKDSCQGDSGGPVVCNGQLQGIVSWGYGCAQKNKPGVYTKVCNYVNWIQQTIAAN

`O=C(Nc1cccc(NC(=O)c2cccs2)c1)c1ccc([N+](=O)[O-])o1`: the results for the concentration for half-maximal inhibition (IC50) in test [1], in [2] and in [6] were 49.8 µM (active), 4.05 µM (active) and 1.57 µM (active), respectively. The CC50 in test [3] is 11 µM (active); in [7], 11.9 µM (active); in test [8], 7.45 µM (active). Also, the EC50 in test [4] is > 60 µM (not active); in test [5], 0.104 µM (active). For the same compound, the AC50 in test [9] is 4.04 µM (active).

For the compound `CCOC(=O)c1cc(C#N)c(Oc2ccccc2)nc1-c1ccccc1`, in test [10], the IC50 was 1.69 µM (active).

As to `CCCOc1ccc(/C=C2/C(=O)ON=C2C)cc1Cl`, in [11], the EC50 was > 32 µM (inactive).

With `O=c1c2ccccc2sn1-c1ccc(Cl)c(S(=O)(=O)N2CCOCC2)c1`, the IC50 was > 100 µM (inactive) in test [12], 8.58 µM (active) in test [13], 55.3 µM (active) in [14] and 1.07 µM (inactive) in test [15].

On to `CN(C)CCCNc1cc(C(C)(C)C)nc2c(-c3ccccc3)cnn12`, for which the half-maximal activity concentration (AC50) in [16] was 15.5 µM (active); in test [17] it was 13.8 µM (active); in test [18], 2.53 µM (active). Further, the IC50 in test [2] was 19.8 µM (active); in test [19] it was > 20 µM (inactive). Moreover, the CC50 in [3] was > 20 µM (active); in [7] it was > 20 µM (active); in test [8] it was 24.5 µM (active). The figures for the EC50 in test [4] and in test [5] were 4.96 µM (active) and 0.574 µM (active), respectively.

Consider `Cc1ccc(C(=O)N2CCN(C3c4cccc5cccc(c45)C3NS(=O)(=O)c3ccccc3)CC2)cc1` (configuration not stated), for which the IC50 in test [20] and in test [21] was > 69.5 µM (inactive) each time. In addition, in test [11], the EC50 was 3.68 µM (active).

Turning to `Cc1ccc(-c2cc(-c3ccccc3)c(C#N)c(Br)n2)cc1`, the AC50 in test [22] is 11.9 µM (active). Further, the EC50 was 58.7 µM (not active) in [23], 34.1 µM (not active) in test [24] and 58.2 µM (not active) in test [25].

One may read the IC50 as the midpoint of a concentration-inhibition curve. One may read the CC50 as the concentration that lowers cell viability or growth by half. The EC50 is the concentration needed to bring the measured effect to its halfway point. Usually AC50 stands for the concentration giving half of the maximal activity seen.

Values taken from ChEMBL document CHEMBL1201862, “PubChem BioAssay data set” (2004).
